In patent publication US20090181963A1, “3H-[1,2,3]TRIAZOLO[4,5-D]PYRIMIDINE COMPOUNDS, THEIR USE AS mTOR KINASE AND PI3 KINASE INHIBITORS, AND THEIR [sequence]” (Wyeth, priority 2008, published 2009):

What was measured:
[1] = target: PI3 Kinase γ (Homo sapiens, UniProt P48736); assay: Fluorescence polarization assay for PI3K (PI3 Kinase γ); format: biochemical; conditions: diC8-PI(4,5)P2 substrate, 25 μM ATP, one hour at 25° C.
Procedure: Nunc 384 well black polypropylene fluorescent plates were used for PI3K assays. Reactions were quenched by the addition of EDTA to a final concentration of 10 μM. Final reaction volumes were 10 ml. […] Reactions were allowed to proceed for one hour at 25° C. After I hour, GST-tagged GRP1 (general receptor for phosphoinositides) PH domain fusion protein was added to a final concentration of 100 nM, and BODIPY-TMRI(1,3,4,5)P4 (Echelon) was also added to a final concentration of 5 nM. Final sample volumes were 25 μl with a final DMSO concentration of 0.8%. Assay Plates were read on PerkinElmer Envision plate readers with appropriate filters for Tamra [BODIPY-TMRI(1,3,4,5)P4]. Data obtained were used to calculate enzymatic activity and enzyme inhibition by inhibitor compounds.

[2] = target: PI3 Kinase α (Homo sapiens, UniProt P42336); assay: Fluorescence polarization assay for PI3K (PI3 Kinase α); format: biochemical; conditions: diC8-PI(4,5)P2 substrate, 25 μM ATP, one hour at 25° C.
PI3 Kinase α, sequence (P42336 whole entry): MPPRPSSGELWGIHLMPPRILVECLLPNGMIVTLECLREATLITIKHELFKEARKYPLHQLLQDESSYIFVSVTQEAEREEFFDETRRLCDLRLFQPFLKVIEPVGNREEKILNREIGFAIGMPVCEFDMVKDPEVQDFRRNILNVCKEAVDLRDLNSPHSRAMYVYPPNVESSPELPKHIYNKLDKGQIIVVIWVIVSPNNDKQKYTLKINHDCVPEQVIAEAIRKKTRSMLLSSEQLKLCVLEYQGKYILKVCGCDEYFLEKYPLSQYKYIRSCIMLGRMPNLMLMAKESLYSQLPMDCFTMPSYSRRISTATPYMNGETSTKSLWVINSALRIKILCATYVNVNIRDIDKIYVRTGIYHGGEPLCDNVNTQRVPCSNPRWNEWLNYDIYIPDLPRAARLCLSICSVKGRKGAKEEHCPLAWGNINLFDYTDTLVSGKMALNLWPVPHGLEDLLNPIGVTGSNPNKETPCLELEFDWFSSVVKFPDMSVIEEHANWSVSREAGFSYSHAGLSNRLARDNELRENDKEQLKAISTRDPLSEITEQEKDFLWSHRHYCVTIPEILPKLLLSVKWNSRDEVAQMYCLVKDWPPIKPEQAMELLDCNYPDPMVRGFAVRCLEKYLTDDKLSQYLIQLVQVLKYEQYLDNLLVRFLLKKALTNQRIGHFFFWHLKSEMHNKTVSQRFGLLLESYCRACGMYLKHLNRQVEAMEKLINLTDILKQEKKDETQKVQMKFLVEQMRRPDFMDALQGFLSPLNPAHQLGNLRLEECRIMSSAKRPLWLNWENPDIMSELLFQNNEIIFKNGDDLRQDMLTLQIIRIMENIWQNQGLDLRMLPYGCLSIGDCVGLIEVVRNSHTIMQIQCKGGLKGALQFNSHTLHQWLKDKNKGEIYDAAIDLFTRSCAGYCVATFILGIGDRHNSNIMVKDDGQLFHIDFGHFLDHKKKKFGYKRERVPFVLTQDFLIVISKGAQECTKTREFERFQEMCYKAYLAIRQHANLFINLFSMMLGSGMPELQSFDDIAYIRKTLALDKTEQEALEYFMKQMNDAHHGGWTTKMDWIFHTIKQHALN
PI3 Kinase α, sequence (P27986 whole entry partner): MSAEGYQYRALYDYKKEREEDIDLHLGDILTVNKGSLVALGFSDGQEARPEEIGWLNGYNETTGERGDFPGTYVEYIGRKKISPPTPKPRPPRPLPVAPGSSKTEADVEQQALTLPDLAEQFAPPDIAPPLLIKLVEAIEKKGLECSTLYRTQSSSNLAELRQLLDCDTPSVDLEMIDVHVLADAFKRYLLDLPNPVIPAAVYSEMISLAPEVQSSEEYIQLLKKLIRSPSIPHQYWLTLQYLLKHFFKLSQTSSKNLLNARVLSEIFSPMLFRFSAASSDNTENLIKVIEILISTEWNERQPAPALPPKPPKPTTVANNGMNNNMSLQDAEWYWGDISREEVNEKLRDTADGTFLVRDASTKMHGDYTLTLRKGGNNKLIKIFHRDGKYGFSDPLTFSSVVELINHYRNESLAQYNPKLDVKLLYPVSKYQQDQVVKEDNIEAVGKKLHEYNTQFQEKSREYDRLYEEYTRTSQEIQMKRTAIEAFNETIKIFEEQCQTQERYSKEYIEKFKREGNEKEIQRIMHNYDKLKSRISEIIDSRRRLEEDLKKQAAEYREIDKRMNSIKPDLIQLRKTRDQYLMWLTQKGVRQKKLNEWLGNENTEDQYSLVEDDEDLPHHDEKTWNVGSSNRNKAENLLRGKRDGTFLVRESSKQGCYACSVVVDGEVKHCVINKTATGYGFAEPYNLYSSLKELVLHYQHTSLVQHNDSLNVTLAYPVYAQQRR

PI3 Kinase γ, sequence (P48736 whole entry): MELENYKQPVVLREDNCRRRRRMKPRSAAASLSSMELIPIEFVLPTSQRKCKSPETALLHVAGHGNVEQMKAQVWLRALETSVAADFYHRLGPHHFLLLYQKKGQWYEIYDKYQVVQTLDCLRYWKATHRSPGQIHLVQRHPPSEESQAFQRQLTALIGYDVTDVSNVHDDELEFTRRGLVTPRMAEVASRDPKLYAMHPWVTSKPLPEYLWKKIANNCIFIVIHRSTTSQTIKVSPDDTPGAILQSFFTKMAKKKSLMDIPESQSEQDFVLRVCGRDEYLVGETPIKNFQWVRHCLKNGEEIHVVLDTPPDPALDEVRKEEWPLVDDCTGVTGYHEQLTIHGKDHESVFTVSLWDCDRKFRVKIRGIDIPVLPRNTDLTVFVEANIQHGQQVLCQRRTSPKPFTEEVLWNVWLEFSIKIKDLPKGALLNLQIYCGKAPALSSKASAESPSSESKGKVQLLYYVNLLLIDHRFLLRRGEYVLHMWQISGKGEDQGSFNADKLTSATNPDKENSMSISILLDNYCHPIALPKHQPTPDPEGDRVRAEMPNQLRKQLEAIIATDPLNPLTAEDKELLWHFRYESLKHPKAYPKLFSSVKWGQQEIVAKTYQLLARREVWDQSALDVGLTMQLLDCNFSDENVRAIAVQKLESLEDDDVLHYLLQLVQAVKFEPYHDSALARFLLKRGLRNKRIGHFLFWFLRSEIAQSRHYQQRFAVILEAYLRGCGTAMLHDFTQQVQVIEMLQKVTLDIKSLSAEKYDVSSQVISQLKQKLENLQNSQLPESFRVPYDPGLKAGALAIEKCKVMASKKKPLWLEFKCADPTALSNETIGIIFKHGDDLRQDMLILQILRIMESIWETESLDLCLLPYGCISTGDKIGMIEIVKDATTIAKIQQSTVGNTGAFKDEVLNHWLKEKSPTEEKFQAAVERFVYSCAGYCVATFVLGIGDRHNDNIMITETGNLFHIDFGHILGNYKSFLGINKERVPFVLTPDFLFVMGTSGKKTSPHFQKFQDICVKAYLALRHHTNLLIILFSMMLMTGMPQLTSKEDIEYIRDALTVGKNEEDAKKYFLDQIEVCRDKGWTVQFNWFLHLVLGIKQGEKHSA

Row | IC50 [1] [µM] | IC50 [2] [µM] | SMILES
1 | 0.111 | 0.031 | Oc1cncc(-c2nc(N3CCOCC3)c3nnn(C4CCN(Cc5ccco5)CC4)c3n2)c1 [Example 13, 5-{3-[1-(2-furylmethyl)piperidin-4-yl]-7-morpholin-4-yl-3H-[1,2,3]triazolo[4,5-d]pyrimidin-5-yl}pyridin-3-ol]
2 | 0.094 | 0.06 | Oc1cncc(-c2nc(N3CCOCC3)c3nnn(C4CCN(Cc5ccc(F)cc5)CC4)c3n2)c1 [Example 14, 5-{3-[1-(4-fluorobenzyl)piperidin-4-yl]-7-morpholin-4-yl-3H-[1,2,3]triazolo[4,5-d]pyrimidin-5-yl}pyridin-3-ol]
3 | 0.106 | 0.016 | Oc1cncc(-c2nc(N3CCOCC3)c3nnn(C4CCN(Cc5ccc(Br)nc5)CC4)c3n2)c1 [Example 15, 5-(3-{1-[(6-bromopyridin-3-yl)methyl]piperidin-4-yl}-7-morpholin-4-yl-3H-[1,2,3]triazolo[4,5-d]pyrimidin-5-yl)pyridin-3-ol]
4 | 0.161 | 0.061 | Oc1cncc(-c2nc(N3CCOCC3)c3nnn(C4CCN(Cc5cncc(Br)c5)CC4)c3n2)c1 [Example 16, 5-(3-{1-[(5-bromopyridin-3-yl)methyl]piperidin-4-yl}-7-morpholin-4-yl-3H-[1,2,3]triazolo[4,5-d]pyrimidin-5-yl)pyridin-3-ol]
5 | 0.37 | 0.217 | CN(C)CCCOc1ccc(CN2CCC(n3nnc4c(N5CCOCC5)nc(-c5cncc(O)c5)nc43)CC2)cc1 [Example 17, 5-[3-(1-{4-[3-(dimethylamino)propoxy]benzyl}piperidin-4-yl)-7-morpholin-4-yl-3H-[1,2,3]triazolo[4,5-d]pyrimidin-5-yl]pyridin-3-ol]
6 | 0.261 | 0.075 | Oc1cncc(-c2nc(N3CCOCC3)c3nnn(C4CCN(Cc5ccc(F)c(F)c5)CC4)c3n2)c1 [Example 18, 5-{3-[1-(3,4-difluorobenzyl)piperidin-4-yl]-7-morpholin-4-yl-3H-[1,2,3]triazolo[4,5-d]pyrimidin-5-yl}pyridin-3-ol]
7 | 0.277 | 0.083 | Cn1cccc1CN1CCC(n2nnc3c(N4CCOCC4)nc(-c4cncc(O)c4)nc32)CC1 [Example 19, 5-(3-{1-[(1-methyl-1H-pyrrol-2-yl)methyl]piperidin-4-yl}-7-morpholin-4-yl-3H-[1,2,3]triazolo[4,5-d]pyrimidin-5-yl)pyridin-3-ol]
8 | 0.454 | 0.541 | Oc1cncc(-c2nc(N3CCOCC3)c3nnn(C4CCN(Cc5ccc(Cl)nc5)CC4)c3n2)c1 [Example 20, 5-(3-{1-[(6-chloropyridin-3-yl)methyl]piperidin-4-yl}-7-morpholin-4-yl-3H-[1,2,3]triazolo[4,5-d]pyrimidin-5-yl)pyridin-3-ol]
9 | 0.24 | 0.066 | Cc1ccc(CN2CCC(n3nnc4c(N5CCOCC5)nc(-c5cncc(O)c5)nc43)CC2)s1 [Example 21, 5-(3-{1-[(5-methyl-2-thienyl)methyl]piperidin-4-yl}-7-morpholin-4-yl-3H-[1,2,3]triazolo[4,5-d]pyrimidin-5-yl)pyridin-3-ol]
10 | 0.318 | 0.304 | CN1CCC(n2nnc3c(N4CCOCC4)nc(-c4cncc(O)c4)nc32)CC1 [Example 22, 5-[3-(1-methylpiperidin-4-yl)-7-morpholin-4-yl-3H-[1,2,3]triazolo[4,5-d]pyrimidin-5-yl]pyridin-3-ol]
11 | 0.044 | 0.068 | Oc1cncc(-c2nc(N3CCOCC3)c3nnn(C4CCN(Cc5ccc(F)cc5F)CC4)c3n2)c1 [Example 23, 5-{3-[1-(2,4-difluorobenzyl)piperidin-4-yl]-7-morpholin-4-yl-3H-[1,2,3]triazolo[4,5-d]pyrimidin-5-yl}pyridin-3-ol]
12 | 0.219 | 0.086 | Cn1cncc1CN1CCC(n2nnc3c(N4CCOCC4)nc(-c4cncc(O)c4)nc32)CC1 [Example 24, 5-(3-{1-[(1-methyl-1H-imidazol-5-yl)methyl]piperidin-4-yl}-7-morpholin-4-yl-3H-[1,2,3]triazolo[4,5-d]pyrimidin-5-yl)pyridin-3-ol]
13 | 0.407 | 0.143 | CC(C)(C)C(=O)Nc1ncccc1CN1CCC(n2nnc3c(N4CCOCC4)nc(-c4cncc(O)c4)nc32)CC1 [Example 25, N-[3-({4-[5-(5-hydroxypyridin-3-yl)-7-morpholin-4-yl-3H-[1,2,3]triazolo[4,5-d]pyrimidin-3-yl]piperidin-1-yl}methyl)pyridin-2-yl]-2,2-dimethylpropanamide]
14 | 0.108 | 0.016 | Cc1cc(CN2CCC(n3nnc4c(N5CCOCC5)nc(-c5cncc(O)c5)nc43)CC2)sc1C [Example 26, 5-(3-{1-[(4,5-dimethyl-2-thienyl)methyl]piperidin-4-yl}-7-morpholin-4-yl-3H-[1,2,3]triazolo[4,5-d]pyrimidin-5-yl)pyridin-3-ol]
15 | 2.53 | 0.385 | CCCCN1CCC(n2nnc3c(N4CCOCC4)nc(-c4cncc(O)c4)nc32)CC1 [Example 27, 5-[3-(1-butylpiperidin-4-yl)-7-morpholin-4-yl-3H-[1,2,3]triazolo[4,5-d]pyrimidin-5-yl]pyridin-3-ol]
16 | 8.83 | 0.998 | Oc1cncc(-c2nc(N3CCOCC3)c3nnn(C4CCN(CN5CCN(Cc6ccccc6)CC5)CC4)c3n2)c1 [Example 28, 5-(3-{1-[(4-benzylpiperazin-1-yl)methyl]piperidin-4-yl}-7-morpholin-4-yl-3H-[1,2,3]triazolo[4,5-d]pyrimidin-5-yl)pyridin-3-ol]
17 | 3.11 | 1.14 | Oc1cncc(-c2nc(N3CCOCC3)c3nnn(C4CCN(Cc5ccc[nH]5)CC4)c3n2)c1 [Example 29, 5-{7-morpholin-4-yl-3-[1-(1H-pyrrol-2-ylmethyl)piperidin-4-yl]-3H-[1,2,3]triazolo[4,5-d]pyrimidin-5-yl}pyridin-3-ol]
18 | 2.86 | 0.231 | Cn1nccc1CN1CCC(n2nnc3c(N4CCOCC4)nc(-c4cncc(O)c4)nc32)CC1 [Example 30, 5-(3-{1-[(1-methyl-1H-pyrazol-5-yl)methyl]piperidin-4-yl}-7-morpholin-4-yl-3H-[1,2,3]triazolo[4,5-d]pyrimidin-5-yl)pyridin-3-ol]
19 | 2.28 | 0.298 | Oc1cncc(-c2nc(N3CCOCC3)c3nnn(C4CCN(Cc5ccc(-c6ccncc6)cc5)CC4)c3n2)c1 [Example 31, 5-{7-morpholin-4-yl-3-[1-(4-pyridin-4-ylbenzyl)piperidin-4-yl]-3H-[1,2,3]triazolo[4,5-d]pyrimidin-5-yl}pyridin-3-ol]
20 | 4.07 | 0.554 | CCn1nnc2c(N3CCOCC3)nc(-c3ccc(N)cc3)nc21 [Example 32, 4-(3-Ethyl-7-morpholin-4-yl-3H-[1,2,3]triazolo[4,5-d]pyrimidin-5-yl)-phenylamine]
21 | 0.019 | 0.003 | CCn1nnc2c(N3CCOCC3)nc(-c3ccc(NC(=O)Nc4ccncc4)cc3)nc21 [Example 33, 1-[4-(3-ethyl-7-morpholin-4-yl-3H-[1,2,3]triazolo[4,5-d]pyrimidin-5-yl)phenyl]-3-pyridin-4-ylurea]
22 | 0.309 | 0.132 | CCn1nnc2c(N3CCOCC3)nc(-c3ccc(NC(=O)NCCN(C)C)cc3)nc21 [Example 34, 1-[2-(dimethylamino)ethyl]-3-[4-(3-ethyl-7-morpholin-4-yl-3H-[1,2,3]triazolo[4,5-d]pyrimidin-5-yl)phenyl]urea]
23 | 0.037 | 0.008 | CCn1nnc2c(N3CCOCC3)nc(-c3ccc(NC(=O)Nc4ccnc(C)c4)cc3)nc21 [Example 35, 1-[4-(3-ethyl-7-morpholin-4-yl-3H-[1,2,3]triazolo[4,5-d]pyrimidin-5-yl)phenyl]-3-(2-methylpyridin-4-yl)urea]
24 | 0.895 | 0.179 | CCn1nnc2c(N3CCOCC3)nc(-c3ccc(NC(=O)Nn4cnnc4)cc3)nc21 [Example 36, 1-[4-(3-ethyl-7-morpholin-4-yl-3H-[1,2,3]triazolo[4,5-d]pyrimidin-5-yl)phenyl]-3-(4H-1,2,4-triazol-4-yl)urea]
25 | 0.157 | 0.0735 | CCn1nnc2c(N3CCOCC3)nc(-c3ccc(NC(=O)Nc4nccs4)cc3)nc21 [Example 37, 1-[4-(3-ethyl-7-morpholin-4-yl-3H-[1,2,3]triazolo[4,5-d]pyrimidin-5-yl)phenyl]-3-(1,3-thiazol-2-yl)urea]
26 | 7.44 | 0.341 | CCn1nnc2c(N3CCOCC3)nc(-c3ccc(NC(=O)OCCc4ccc(N)cc4)cc3)nc21 [Example 38, 2-(4-aminophenyl)ethyl [4-(3-ethyl-7-morpholin-4-yl-3H-[1,2,3]triazolo[4,5-d]pyrimidin-5-yl)phenyl]carbamate]
27 | 0.0115 | 0.0025 | CCn1nnc2c(N3CCOCC3)nc(-c3ccc(NC(=O)Nc4cccs4)cc3)nc21 [Example 40, 1-[4-(3-ethyl-7-morpholin-4-yl-3H-[1,2,3]triazolo[4,5-d]pyrimidin-5-yl)phenyl]-3-(2-thienyl)urea]
28 | 0.0845 | 0.0233 | CCn1nnc2c(N3CCOCC3)nc(-c3ccc(NC(=O)Nc4ccc(C(=O)OC)cc4)cc3)nc21 [Example 41, methyl 4-({[4-(3-ethyl-7-morpholin-4-yl-3H-[1,2,3]triazolo[4,5-d]pyrimidin-5-yl)phenyl]carbamoyl}amino)benzoate]
29 | 0.0353 | 0.0105 | CCn1nnc2c(N3CCOCC3)nc(-c3ccc(NC(=O)Nc4ccc(C(=O)O)cc4)cc3)nc21 [Example 42, 4-({[4-(3-ethyl-7-morpholin-4-yl-3H-[1,2,3]triazolo[4,5-d]pyrimidin-5-yl)phenyl]carbamoyl}amino)benzoic acid]
30 | 0.018 | 0.001 | CCn1nnc2c(N3CCOCC3)nc(-c3ccc(NC(=O)Nc4ccc(C(=O)NCCN(C)C)cc4)cc3)nc21 [Example 43, N-[2-(dimethylamino)ethyl]-4-({[4-(3-ethyl-7-morpholin-4-yl-3H-[1,2,3]triazolo[4,5-d]pyrimidin-5-yl)phenyl]carbamoyl}amino)benzamide]
